In one data set the test system is MRSP C22963. It is filed as cell-based, Staphylococcus pseudintermedius. The following applies: 18 h. The method, then:
(§1) Activity of B1 was tested on 50P. aeruginosa isolates and 57S. pseudintermedius isolates (including 7 MRSP) that had been isolated in the diagnostic laboratory Sund Vet Diagnostik (University of Copenhagen) from various infections in dogs between 2009 and 2011. Representative MRSP (C22963), MSSA, and P. aeruginosa (26314) were used for testing the first set of B1 analogues.
(§2) MIC determination was performed by broth microdilution according to the Clinical and Laboratory Standard Institute (CLSI, M31-A3, 2008)[62]. In brief, each bacterial strain was diluted to concentration of 5 × 10^5 CFU/mL in Mueller Hinton broth II (MHB II) media (Oxoid) and added to a two-fold serial dilution of peptides and peptide-peptoid hybrids concentrations ranging from 1 to 64 µg/ml in 96-well plates (Nunc Internationals, Rochester, NY). The MICs were determined as a lowest concentration showing no visible growth after incubation for 18 hours at 37 °C. Experiments were performed in triplicates on two different days.

The next data set concerns MSSA (ATCC 29213). Format: cell-based, Staphylococcus aureus. To be noted: ATCC 29213, 18 h. The method, then:
as §1, §2

The test system of a further data set is P. aeruginosa (26314). It is filed as cell-based, Pseudomonas aeruginosa. To be noted: 26314, 18 h. Here is the method: Activity of B1 was tested on […]. aeruginosa isolates and […]. pseudintermedius isolates (including 7 MRSP) that had been isolated in the diagnostic laboratory Sund Vet Diagnostik (University of Copenhagen) from various infections in dogs between 2009 and 2011. Representative […], and P. aeruginosa (26314) were used for testing the first set of B1 analogues. For antibacterial spectrum the following strains were used: Corynebacterium auriscanis, 31551, (54 C6, dog, ear, 2013); Enterococcus faecalis, 27404, (17 C7, dog, wound, 2011); Enterococcus faecium, 30951, (24 C1, dog, ear, 2013); Streptococcus canis, 26740-1, (14 H1, dog, ear, 2010); Staphylococcus aureus, 27266, (16 G9, dog, skin, 2010); Staphylococcus aureus, 27266, (16 G9, dog, skin, 2010); Staphylococcus pseudintermedius 22963, (3 B9, dog, 2007). Acinetobacter baumannii, 27065, (16 D1, dog, wound, 2010); E. coli, 30235, 23 A6, dog, wound, 2012; Klebsiella pneumoniae, 26233, (11 H5, dog, wound, 2010); Pasteurella canis, 31096, (24 C8, dog, skin, 2013); Proteus mirabilis, 25178, (9 A4, dog, ear, 2009); Pseudomonas aeruginosa 26314, 12 C5, dog, urine, 2010). MIC determination was performed by broth microdilution according to the Clinical and Laboratory Standard Institute (CLSI, […]-A3, 2008)[62]. In brief, each bacterial strain was diluted to concentration of 5 × 10^5 CFU/mL in Mueller Hinton broth II (MHB II) media (Oxoid) and added to a two-fold serial dilution of peptides and peptide-peptoid hybrids concentrations ranging from 1 to 64 μg/ml in 96-well plates (Nunc Internationals, Rochester, NY). The MICs were determined as a lowest concentration showing no visible growth after incubation for 18 hours at 37 °C. Experiments were performed in triplicates on two different days.

The format of data set [1] is cell-based, human. To be noted: human. The method, then:
(§3) Briefly, two-fold serial dilutions (2.35 to 150 μM) of compounds in phosphate buffer saline (PBS) were mixed with equal volume of 0.5% v/v suspension of fresh human red blood cells (RBC) in the same buffer. After 1 h incubation at 37 °C, plates were centrifuged and aliquots of the supernatants were transferred to clear 96-well plates. Absorbance at 414 nm was measured and normalized using a negative (PBS, 0%) and a positive (melittin, 100%) control. The EC10 and EC50 are concentrations at which 10% and 50% of RBC were lysed, respectively, as interpolated graphically by the y-axis intersection of the plotted data.

The test system of the next data set is human red blood cells. Format: cell-based. Here is the method:
as §3

Square brackets hold non-standard residues; d marks the D form. Peptide text beside a SMILES is read from it. 1Nal = N[C@@H](Cc1cccc2ccccc12)C(=O)O; 2Nal = N[C@@H](Cc1ccc2ccccc2c1)C(=O)O; d1Nal = N[C@H](Cc1cccc2ccccc12)C(=O)O; d2Nal = N[C@H](Cc1ccc2ccccc2c1)C(=O)O Bounds are passed on as bounds.

For `CC(C)C[C@H](NC(=O)[C@H](CCCCN)NC(=O)[C@H](CCCCN)NC(=O)[C@@H](N)CCCCN)C(=O)N[C@@H](Cc1ccc2ccccc2c1)C(=O)N[C@@H](Cc1ccccc1)C(=O)N[C@@H](Cc1ccc2ccccc2c1)C(N)=O` [Compound 9, Lys-Lys-Lys-Leu-(2-Nal)Ala-Phe-(2-Nal)Ala] (H-KKKL[2Nal]F[2Nal]-NH2; N-terminus assumed), the “Minimum Inhibitory Concentration MRSP C22963” value with MRSP C22963 was determined as 8 µg/mL. Besides, the “Minimum Inhibitory Concentration MSSA (ATCC 29213)” value in the data set on MSSA (ATCC 29213) came out at 16 µg/mL. Moreover, the “Minimum Inhibitory Concentration P. aeruginosa (26314)” value in the data set on P. aeruginosa (26314) worked out at 16 µg/mL. Further, the hemolysis at 1 h, 150 µM in data set [1] is 39%. Moreover, in the data set with human red blood cells, the “Haemolysis EC10” value was determined as 46 µM.

As for `CC(C)C[C@@H](NC(=O)[C@H](CCCCN)NC(=O)[C@@H](N)CCCCN)C(=O)N[C@@H](CCCCN)C(=O)N[C@H](Cc1cccc2ccccc12)C(=O)N[C@H](Cc1ccccc1)C(=O)N[C@H](Cc1cccc2ccccc12)C(N)=O` [Compound 14, Lys-Lys-leu-Lys-(1-Nal)ala-phe-(1-Nal)ala] (H-KK[dL]K[d1Nal][dF][d1Nal]-NH2; N-terminus assumed), the “Minimum Inhibitory Concentration MRSP C22963” value in the data set with MRSP C22963 fell in the range of 4 to 8 µg/mL. Further, the “Minimum Inhibitory Concentration MSSA (ATCC 29213)” value with MSSA (ATCC 29213) was determined as 16 µg/mL. Besides, the “Minimum Inhibitory Concentration P. aeruginosa (26314)” value in the data set on P. aeruginosa (26314) is 16 to 32 µg/mL. Also, in data set [1], the hemolysis at 1 h, 150 µM amounted to 58%. Moreover, the “Haemolysis EC10” value in the data set on human red blood cells is recorded as 28 µM. The same molecule yielded an EC50 with human red blood cells (red cells of human, 1 h) of 128 µM.

`CC(C)C[C@@H](NC(=O)[C@H](CCCCN)NC(=O)[C@@H](N)CCCCN)C(=O)N[C@@H](CCCCN)C(=O)N[C@H](Cc1ccc2ccccc2c1)C(=O)N[C@H](Cc1ccccc1)C(=O)N[C@H](Cc1ccc2ccccc2c1)C(N)=O` [Compound 17, Lys-Lys-leu-Lys-(2-Nal)ala-phe-(2-Nal)ala] (H-KK[dL]K[d2Nal][dF][d2Nal]-NH2; N-terminus assumed): the “Minimum Inhibitory Concentration MRSP C22963” value in the data set with MRSP C22963 worked out at 8 µg/mL. Moreover, in the data set with MSSA (ATCC 29213), the “Minimum Inhibitory Concentration MSSA (ATCC 29213)” value turned out to be 16 µg/mL. In the data set with P. aeruginosa (26314), the “Minimum Inhibitory Concentration P. aeruginosa (26314)” value is 32 µg/mL. This molecule also registered a hemolysis at 1 h, 150 µM in data set [1] of 40%. Moreover, the “Haemolysis EC10” value with human red blood cells is listed as 8 µM.

`CC(C)C[C@@H](NC(=O)[C@H](CCCCN)NC(=O)[C@@H](Cc1ccc2ccccc2c1)NC(=O)[C@@H](Cc1ccccc1)NC(=O)[C@H](N)Cc1ccc2ccccc2c1)C(=O)N[C@@H](CCCCN)C(=O)N[C@@H](CCCCN)C(N)=O` [Compound 18, (2-Nal)ala-phe-(2-Nal)ala-Lys-leu-Lys-Lys] (H-[d2Nal][dF][d2Nal]K[dL]KK-NH2; N-terminus assumed): the “Minimum Inhibitory Concentration MRSP C22963” value in the data set on MRSP C22963 was found to be 16 µg/mL. Besides, in the data set on MSSA (ATCC 29213), the “Minimum Inhibitory Concentration MSSA (ATCC 29213)” value was in the range of 32 to 64 µg/mL. Further, in the data set on P. aeruginosa (26314), the “Minimum Inhibitory Concentration P. aeruginosa (26314)” value was over 64 µg/mL. For the same molecule, the hemolysis at 1 h, 150 µM in data set [1] is under 8%.

Consider `CC(C)C[C@H](NC(=O)[C@H](Cc1cccc2ccccc12)NC(=O)[C@H](Cc1ccccc1)NC(=O)[C@@H](N)Cc1cccc2ccccc12)C(=O)N[C@@H](CCCCN)C(=O)N[C@@H](CCCCN)C(=O)N[C@@H](CCCCN)C(N)=O` [Compound 12, (1-Nal)Ala-Phe-(1-Nal)Ala-Leu-Lys-Lys-Lys] (H-[1Nal]F[1Nal]LKKK-NH2; N-terminus assumed), for which the “Minimum Inhibitory Concentration MRSP C22963” value in the data set on MRSP C22963 is 16 µg/mL. Further, in the data set with MSSA (ATCC 29213), the “Minimum Inhibitory Concentration MSSA (ATCC 29213)” value turned out to be 32 µg/mL. Further, the “Minimum Inhibitory Concentration P. aeruginosa (26314)” value in the data set with P. aeruginosa (26314) is over 64 µg/mL. Further, the hemolysis at 1 h, 150 µM in data set [1] was under 8%.

`CC(C)C[C@H](NC(=O)[C@H](CCCCN)NC(=O)[C@H](Cc1ccc2ccccc2c1)NC(=O)[C@H](Cc1ccccc1)NC(=O)[C@@H](N)Cc1ccc2ccccc2c1)C(=O)N[C@@H](CCCCN)C(=O)N[C@@H](CCCCN)C(N)=O` [Compound 11, (2-Nal)Ala-Phe -(2-Nal)Ala-Lys-Leu-Lys-Lys] (H-[2Nal]F[2Nal]KLKK-NH2; N-terminus assumed): the “Minimum Inhibitory Concentration MRSP C22963” value in the data set on MRSP C22963 lay within 4 to 8 µg/mL. Further, the “Minimum Inhibitory Concentration MSSA (ATCC 29213)” value with MSSA (ATCC 29213) came out at 16 µg/mL. In the data set on P. aeruginosa (26314), the “Minimum Inhibitory Concentration P. aeruginosa (26314)” value stood at 64 µg/mL. Besides, in data set [1], the hemolysis at 1 h, 150 µM is under 8%.

For orientation: EC50 means the concentration at which the effect is half-maximal. Higher therefore signals a less potent agent.

The record behind these values is PMC6403271, “Characterization, mechanism of action and optimization of activity of a novel peptide-peptoid hybrid against bacterial pathogens involved in canine skin infections” (Scientific Reports, 2019).
